Test results from US20230399311A1, “POLYMORPHS OF SUBSTITUTED ISOQUINOLINE-BASED RHO KINASE INHIBITORS” (BioAxone BioSciences, Inc., priority 2022, published 2023).

Experiments:
[1] = pH-dependent stability in buffer solutions; assay type: physicochemical
Procedure: The solutions were stored in vials at 25° C., 40° C., and 60° C. […] Purity was measured by HPLC.

[2] = Partition coefficient, octanol/water; assay type: physicochemical
Procedure: The partition coefficient of NRL-1049 adipate was determined according to the following procedure. In a 500 mL separation funnel, 120 mL water and 120 mL octanol were combined, mixed well, and allowed to separate into two layers. Approximately 100 mL of the organic phase layer and approximately 100 mL from the aqueous phase layer were removed and utilized in the following steps. Three 100 mL separation funnels were labeled as Sample 1, Sample 2, and Sample 3. […] The P values were as follows: Sample 1=0.0053, Sample 2=0.0049, Sample 3=0.0050.

C[C@@H](N)C1CCN(S(=O)(=O)c2cccc3cnccc23)CC1.O=C(O)CCCCC(=O)O [NRL-1049 Adipate]
Appearance ([1]; Acetate Buffer, 1 Wk, 25° C.): No change | Purity (% Area) ([1]; Acetate Buffer, 1 Wk, 25° C.): 99.7 % Area | pH ([1]; Acetate Buffer, 1 Wk, 25° C.): 4.8 | Appearance ([1]; Acetate Buffer, 1 Wk, 40° C.): No change | Purity (% Area) ([1]; Acetate Buffer, 1 Wk, 40° C.): 99.7 % Area | pH ([1]; Acetate Buffer, 1 Wk, 40° C.): 4.7 | Appearance ([1]; Acetate Buffer, 1 Wk, 60° C.): No change | Purity (% Area) ([1]; Acetate Buffer, 1 Wk, 60° C.): 99.8 % Area | pH ([1]; Acetate Buffer, 1 Wk, 60° C.): 4.7 | Appearance ([1]; Acetate Buffer, 2 Wk, 25° C.): No change | Purity (% Area) ([1]; Acetate Buffer, 2 Wk, 25° C.): 99.7 % Area | pH ([1]; Acetate Buffer, 2 Wk, 25° C.): 4.6 | Appearance ([1]; Acetate Buffer, 2 Wk, 40° C.): No change | Purity (% Area) ([1]; Acetate Buffer, 2 Wk, 40° C.): 99.7 % Area | pH ([1]; Acetate Buffer, 2 Wk, 40° C.): 4.5 | Appearance ([1]; Acetate Buffer, 2 Wk, 60° C.): No change | Purity (% Area) ([1]; Acetate Buffer, 2 Wk, 60° C.): 99.7 % Area | pH ([1]; Acetate Buffer, 2 Wk, 60° C.): 4.5 | Appearance ([1]; Acetate Buffer, 3 Wk, 25° C.): No change | Purity (% Area) ([1]; Acetate Buffer, 3 Wk, 25° C.): 99.6 % Area | pH ([1]; Acetate Buffer, 3 Wk, 25° C.): 4.6 | Appearance ([1]; Acetate Buffer, 3 Wk, 40° C.): No change | Purity (% Area) ([1]; Acetate Buffer, 3 Wk, 40° C.): 99.7 % Area | pH ([1]; Acetate Buffer, 3 Wk, 40° C.): 4.5 | Appearance ([1]; Acetate Buffer, 3 Wk, 60° C.): No change | Purity (% Area) ([1]; Acetate Buffer, 3 Wk, 60° C.): 99.6 % Area | pH ([1]; Acetate Buffer, 3 Wk, 60° C.): 4.5 | Appearance ([1]; Acetate Buffer, Time 0): Clear | Purity (% Area) ([1]; Acetate Buffer, Time 0): 99.8 % Area | pH ([1]; Acetate Buffer, Time 0): 4.6 | Appearance ([1]; Hydroxide Buffer, 1 Wk, 25° C.): No change | Purity (% Area) ([1]; Hydroxide Buffer, 1 Wk, 25° C.): 99.7 % Area | pH ([1]; Hydroxide Buffer, 1 Wk, 25° C.): 1.4 | Appearance ([1]; Hydroxide Buffer, 1 Wk, 40° C.): No change | Purity (% Area) ([1]; Hydroxide Buffer, 1 Wk, 40° C.): 99.8 % Area | pH ([1]; Hydroxide Buffer, 1 Wk, 40° C.): 1.4 | Appearance ([1]; Hydroxide Buffer, 1 Wk, 60° C.): No change | Purity (% Area) ([1]; Hydroxide Buffer, 1 Wk, 60° C.): 99.6 % Area | pH ([1]; Hydroxide Buffer, 1 Wk, 60° C.): 1.3 | Appearance ([1]; Hydroxide Buffer, 2 Wk, 25° C.): No change | Purity (% Area) ([1]; Hydroxide Buffer, 2 Wk, 25° C.): 99.7 % Area | pH ([1]; Hydroxide Buffer, 2 Wk, 25° C.): 1.4 | Appearance ([1]; Hydroxide Buffer, 2 Wk, 40° C.): No change | Purity (% Area) ([1]; Hydroxide Buffer, 2 Wk, 40° C.): 99.6 % Area | pH ([1]; Hydroxide Buffer, 2 Wk, 40° C.): 1.4 | Appearance ([1]; Hydroxide Buffer, 2 Wk, 60° C.): No change | Purity (% Area) ([1]; Hydroxide Buffer, 2 Wk, 60° C.): 99.6 % Area | pH ([1]; Hydroxide Buffer, 2 Wk, 60° C.): 1.3 | Appearance ([1]; Hydroxide Buffer, 3 Wk, 25° C.): No change | Purity (% Area) ([1]; Hydroxide Buffer, 3 Wk, 25° C.): 99.6 % Area | pH ([1]; Hydroxide Buffer, 3 Wk, 25° C.): 1.4 | Appearance ([1]; Hydroxide Buffer, 3 Wk, 40° C.): No change | Purity (% Area) ([1]; Hydroxide Buffer, 3 Wk, 40° C.): 99.6 % Area | pH ([1]; Hydroxide Buffer, 3 Wk, 40° C.): 1.4 | Appearance ([1]; Hydroxide Buffer, 3 Wk, 60° C.): No change | Purity (% Area) ([1]; Hydroxide Buffer, 3 Wk, 60° C.): 99.6 % Area | pH ([1]; Hydroxide Buffer, 3 Wk, 60° C.): 1.3 | Appearance ([1]; Hydroxide Buffer, Time 0): Clear | Purity (% Area) ([1]; Hydroxide Buffer, Time 0): 99.7 % Area | pH ([1]; Hydroxide Buffer, Time 0): 1.3 | Appearance ([1]; Phosphate Buffer, 1 Wk, 25° C.): No change | Purity (% Area) ([1]; Phosphate Buffer, 1 Wk, 25° C.): 99.4 % Area | pH ([1]; Phosphate Buffer, 1 Wk, 25° C.): 7.0 | Appearance ([1]; Phosphate Buffer, 1 Wk, 40° C.): No change | Purity (% Area) ([1]; Phosphate Buffer, 1 Wk, 40° C.): 95.9 % Area | pH ([1]; Phosphate Buffer, 1 Wk, 40° C.): 7.0 | Appearance ([1]; Phosphate Buffer, 1 Wk, 60° C.): No change | Purity (% Area) ([1]; Phosphate Buffer, 1 Wk, 60° C.): 91.3 % Area | pH ([1]; Phosphate Buffer, 1 Wk, 60° C.): 6.9 | Appearance ([1]; Phosphate Buffer, 2 Wk, 25° C.): No change | Purity (% Area) ([1]; Phosphate Buffer, 2 Wk, 25° C.): 95.4 % Area | pH ([1]; Phosphate Buffer, 2 Wk, 25° C.): 6.7 | Appearance ([1]; Phosphate Buffer, 2 Wk, 40° C.): No change | Purity (% Area) ([1]; Phosphate Buffer, 2 Wk, 40° C.): 94.4 % Area | pH ([1]; Phosphate Buffer, 2 Wk, 40° C.): 6.7 | Appearance ([1]; Phosphate Buffer, 2 Wk, 60° C.): No change | Purity (% Area) ([1]; Phosphate Buffer, 2 Wk, 60° C.): 83.0 % Area | pH ([1]; Phosphate Buffer, 2 Wk, 60° C.): 6.7 | Appearance ([1]; Phosphate Buffer, 3 Wk, 25° C.): No change | Purity (% Area) ([1]; Phosphate Buffer, 3 Wk, 25° C.): 94.9 % Area | pH ([1]; Phosphate Buffer, 3 Wk, 25° C.): 6.7 | Appearance ([1]; Phosphate Buffer, 3 Wk, 40° C.): No change | Purity (% Area) ([1]; Phosphate Buffer, 3 Wk, 40° C.): 91.4 % Area | pH ([1]; Phosphate Buffer, 3 Wk, 40° C.): 6.7 | Appearance ([1]; Phosphate Buffer, 3 Wk, 60° C.): No change | Purity (% Area) ([1]; Phosphate Buffer, 3 Wk, 60° C.): 78.8 % Area | pH ([1]; Phosphate Buffer, 3 Wk, 60° C.): 6.8 | Appearance ([1]; Phosphate Buffer, Time 0): Clear | Purity (% Area) ([1]; Phosphate Buffer, Time 0): 99.5 % Area | pH ([1]; Phosphate Buffer, Time 0): 6.7 | Stability as a function of pH (in words) ([1]; pH 1.2 solution): most stable | Stability as a function of pH (in words) ([1]; pH 6.8 buffer): least stable | Partition coefficient P (organic phase/aqueous phase) ([2]; Sample 1: 40 mL aqueous phase, 10 mL organic phase (octanol/water)): 0.0053 | Partition coefficient P (organic phase/aqueous phase) ([2]; Sample 2: 25 mL aqueous phase, 25 mL organic phase (octanol/water)): 0.0049 | Partition coefficient P (organic phase/aqueous phase) ([2]; Sample 3: 10 mL aqueous phase, 40 mL organic phase (octanol/water)): 0.0050 | Hydrophilicity (in words) ([2]; from octanol/water P values): highly hydrophilic
